Experiment in all cases: NCI-60 cell line screen, 48 h
Assay [1] deals with CAKI-1.
In assay [2] the test system is COLO 205.
Assay [3] has as its system EKVX.
The test system of assay [4] is HCT-15.
Assay [5] deals with IGROV-1.
Assay [6] concerns K562.
The subject of assay [7] is NCI-H23.
The subject of assay [8] is OVCAR-5.
Assay [9] deals with OVCAR-8.
Assay [10] concerns RPMI-8226.
Assay [11] deals with SF-295.
The subject of assay [12] is SF-539.
Assay [13] concerns SK-MEL-2.
The subject of assay [14] is SK-MEL-5.
Assay [15] concerns SNB-19.
Assay [16] relates to U-251.
Assay [17] concerns UACC-257.
Assay [18] has as its system UACC-62.
The subject of assay [19] is UO-31.
The subject of assay [20] is HOP-92.

From ChEMBL document CHEMBL1201862, “PubChem BioAssay data set” (2004) come the findings set out here.

The structures appear in SMILES notation.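 Assay format: 96-well plates, 48-hour exposure. Abbreviation: GI50, concentration required for 50% inhibition of growth.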 Calls of active or inactive are those of the source. Rule as the data show it: active = GI50 up to about 1.1 µM and inactive = higher.

`COc1ccc(C(=O)Cc2cc(OC)ccc2OC)cc1`: the GI50 was > 100 µM (inactive) in assay [1]; > 100 µM (inactive) in assay [2]; > 100 µM (inactive) in assay [3]; above 100 µM in [4]; > 100 µM (inactive) in assay [5]; > 100 µM (inactive) in assay [6]. Further, the GI50 was > 100 µM (inactive) in assay [7]; > 100 µM (inactive) in [8]; > 100 µM (inactive) in [9]; 75.3 µM (inactive) in [10]; 48.9 µM (inactive) in assay [11]; > 100 µM (inactive) in assay [12]. Also, the GI50 in assay [13], in [14], in [15], in [16], in [17] and in assay [18] was > 100 µM (inactive) throughout. In [19], the GI50 was > 100 µM (inactive).
Consider `O=C(O)C12CC3CC(C1)C2C=C3P(=O)(O)O` (configuration not stated), for which the GI50 in assay [1] was > 100 µM (inactive); in assay [2] it was > 100 µM (inactive); in assay [3], > 100 µM (inactive); in assay [4], above 100 µM; in assay [20], > 100 µM (inactive); in assay [5], > 100 µM (inactive). The GI50 in [6], in assay [7], in assay [8], in [9], in assay [10] and in [11] was > 100 µM (inactive) each time. The GI50 in assay [13], in [16], in [17], in [18] and in [19] was > 100 µM (inactive) each time.
For the compound `CN(C)CCNC(=O)c1cccc2nc(-c3ccccc3)oc12`, the GI50 was 17.3 µM (inactive) in assay [2]; 6.97 µM (inactive) in [3]; 43.6 µM in assay [4]; 13 µM (inactive) in [20]; 44 µM (inactive) in assay [5]; 1.94 µM (inactive) in assay [6]. Moreover, the GI50 is 48.3 µM (inactive) in [7]; 38.5 µM (inactive) in assay [8]; 35.9 µM (inactive) in [9]; 34.6 µM (inactive) in [10]; 31.3 µM (inactive) in assay [11]; 49.9 µM (inactive) in assay [12]. Further, the GI50 was > 62.5 µM (inactive) in assay [13]; 22.3 µM (inactive) in assay [14]; 19.7 µM (inactive) in assay [15]; 46.9 µM (inactive) in assay [16]; 36.3 µM (inactive) in [17]; 31.5 µM (inactive) in assay [18]. For the same compound, the GI50 in assay [19] was 17.4 µM (inactive).
As to `CC(=O)Nc1ccc(/C=C/c2ccc(NC(=O)Nc3ccc(/C=C/c4ccc(NC(C)=O)cc4S(=O)(=O)O)c(S(=O)(=O)O)c3)cc2S(=O)(=O)O)c(S(=O)(=O)O)c1`, the GI50 is > 100 µM (inactive) in assay [2]; > 100 µM (inactive) in [3]; 45.8 µM in [4]; 43.1 µM (inactive) in assay [20]; > 100 µM (inactive) in assay [5]; > 100 µM (inactive) in assay [6]. Besides, the GI50 in assay [7], in assay [8], in assay [9], in [10], in assay [11] and in assay [12] was > 100 µM (inactive) throughout. Besides, the GI50 in [13], in [14], in assay [15], in [16], in [17] and in assay [18] was > 100 µM (inactive) throughout. For the same compound, the GI50 in [19] is > 100 µM (inactive).
For the compound `CCCCCOc1ccc(/C=N\c2ccc(-c3ccc(/N=C\c4ccc(OCCCCC)cc4)c(OC)c3)cc2OC)cc1`, the GI50 was > 100 µM (inactive) in assay [2]; > 100 µM (inactive) in assay [3]; above 100 µM in assay [4]; > 100 µM (inactive) in assay [20]; > 100 µM (inactive) in assay [5]; > 31.6 µM (inactive) in assay [6]. The GI50 in assay [7], in [8], in assay [9], in assay [10], in assay [11] and in [12] was > 100 µM (inactive) each time. Besides, the GI50 in [13], in assay [14], in [15], in assay [16], in assay [17] and in [18] was > 100 µM (inactive) in each case. In [19], the GI50 is > 80.2 µM (inactive).
`Cc1cc(O)nc(NN2C(Cl)C(=O)C2c2c(O)ccc3ccccc23)n1` (configuration not stated): the GI50 is 25.9 µM (inactive) in assay [2]; 43.8 µM (inactive) in [3]; 15.6 µM in assay [4]; 16.4 µM (inactive) in assay [20]; 38.5 µM (inactive) in [5]; 23.2 µM (inactive) in assay [6]. Also, the GI50 in [7] is 16.4 µM (inactive); in [8], 36.9 µM (inactive); in assay [9], 27.4 µM (inactive); in assay [10], 15.5 µM (inactive); in [12], 21.9 µM (inactive); in assay [13] it was 15.2 µM (inactive). Moreover, the GI50 was 15.2 µM (inactive) in assay [14]; 20.7 µM (inactive) in assay [15]; 21.9 µM (inactive) in assay [16]; 31.2 µM (inactive) in assay [17]; 20.3 µM (inactive) in assay [18]; 26.1 µM (inactive) in assay [19].
As for `O=C(/N=N/c1cc(Cl)ccc1Cl)NNc1cc(Cl)ccc1Cl`, the GI50 in assay [1] is 16 µM (inactive); in assay [2], 21.8 µM (inactive); in assay [4], 16.5 µM; in assay [20] it was 15.2 µM (inactive); in assay [5], 19 µM (inactive); in assay [6] it was 14.6 µM (inactive). In addition, the GI50 in assay [7] is 18.1 µM (inactive); in assay [8], 17.6 µM (inactive); in assay [9] it was 26.8 µM (inactive); in assay [10], 11.9 µM (inactive); in assay [11], 22.8 µM (inactive); in assay [13], 20 µM (inactive). In addition, the GI50 in assay [14] was 12.7 µM (inactive); in assay [15] it was > 10 µM (inactive); in [16] it was 16.7 µM (inactive); in assay [18], 11.2 µM (inactive); in assay [19] it was 11.7 µM (inactive).
Consider `CCCCCCCCCC[C@@H](O)[C@@H]1CC[C@@H]([C@@H]2CC[C@@H]([C@@H](O)CCCCCCCCCCC(O)CC3=CC(C)OC3=O)O2)O1` (some centres not stated), for which the GI50 in [2] is > 10 µM (inactive); in [3] it was 3.03 µM (inactive); in assay [4] it was 5.89 µM; in assay [5], > 10 µM (inactive); in [6], 0.248 µM (active); in [8] it was 0.128 µM (active). The GI50 in [9] is 4.43 µM (inactive); in assay [10], 1.26 µM (inactive); in [11] it was 2.72 µM (inactive); in assay [12], > 10 µM (inactive); in assay [14] it was 0.333 µM (active); in [17], 2.42 µM (inactive). The GI50 is 3.79 µM (inactive) in assay [18] and 0.562 µM (active) in [19].
